Measurements from US20220354949A1, “NOVEL COMPOUNDS” (XENIOPRO GmbH, priority 2018, published 2022).

Key:
Format in all cases: cell-based
[1] = test system: human epidermal keratinocyte progenitors (HPEKp, pooled); test: Proliferation assay (alamarBlue) with HPEKp cells
From the text: (§1) The antiproliferative activities of compounds falling under formula (Ia), (Ib) and (Ic), respectively, were investigated on cells or cell lines originating from a disorder of the haematopoietic system, including the myeloid cell compartment and the lymphoid cell compartment (T-cells and B-cells), the neuroendocrine system, the cervix, the breast, the ovaries, the lung, the gastrointestinal tract, and the mucosal epithelium, as well as from the skin epithelium and from the muscle. To this end, HL-60 cells, NB-4 cells, HH cells, RPMI-8402 cells, TANOUE cells, TT cells, HeLa cells, MDA-MB-231 cells, FU-OV-1 cells, LOU-NH91 cells, 23132/87 cells, CAL-27 cells, BHY cells, SCC-25 cells, A-431 cells, human primary epidermal keratinocytes (HPEK), and C2C12 cells were seeded into 96-well plates suitable for fluorescence assays (CORNING #3598) at following initial cell numbers: 1000 cells per well for HL-60; 1000 cells per well for NB-4; 5000 cells per well for HH; 5000 cells per well for RPMI-8402; 1500 cells per well for TANOUE; 9000 cells per well for TT; 2000 cells per well for HeLa; 3000 cells per well for MDA-MB-231; 3000 cells per well for FU-OV-1; 4000 cells per well for LOU-NH91; 2000 cells per well for 23132/87; 2000 cells per well for CAL-27; 1500 cells per well for BHY; 1500 cells per well for SCC-25; 700 cells per well for A-431; 1000 cells per well for HPEK; 500 cells per well for C2C12. […] The readout was taken with a multi-well plate-reader in the fluorescence mode with applying a filter for excitation at 560 nm (band width 10 nm) and for emission at 590 nm (band width 10 nm). […]
(§2) The assays were performed in duplicate or more replicates of independent single experiments each containing a six-fold replicate for every condition. For every individual plate, the measured fluorescence intensity values of the conditions with compound treatment were normalized against the corresponding equally weighted arithmetic mean of the fluorescence intensity values of the six DMSO treated control wells in order to obtain the relative values to a baseline level of 1.0. […]

[2] = test system: TT cells (human medullary thyroid carcinoma cells); test: Proliferation assay (alamarBlue) with TT cells
From the text: (§3) The antiproliferative activities of compounds falling under formula (Ia), (Ib) and (Ic), respectively, were investigated on cells or cell lines originating from a disorder of the haematopoietic system, including the myeloid cell compartment and the lymphoid cell compartment (T-cells and B-cells), the neuroendocrine system, the cervix, the breast, the ovaries, the lung, the gastrointestinal tract, and the mucosal epithelium, as well as from the skin epithelium and from the muscle. To this end, HL-60 cells, NB-4 cells, HH cells, RPMI-8402 cells, TANOUE cells, TT cells, HeLa cells, MDA-MB-231 cells, FU-OV-1 cells, LOU-NH91 cells, 23132/87 cells, CAL-27 cells, BHY cells, SCC-25 cells, A-431 cells, human primary epidermal keratinocytes (HPEK), and C2C12 cells were seeded into 96-well plates suitable for fluorescence assays (CORNING #3598) at following initial cell numbers: 1000 cells per well for HL-60; 1000 cells per well for NB-4; 5000 cells per well for HH; 5000 cells per well for RPMI-8402; 1500 cells per well for TANOUE; 9000 cells per well for TT; 2000 cells per well for HeLa; 3000 cells per well for MDA-MB-231; 3000 cells per well for FU-OV-1; 4000 cells per well for LOU-NH91; 2000 cells per well for 23132/87; 2000 cells per well for CAL-27; 1500 cells per well for BHY; 1500 cells per well for SCC-25; 700 cells per well for A-431; 1000 cells per well for HPEK; 500 cells per well for C2C12. The cells were treated with compounds at indicated final concentrations (diluted from the 1000× stock-solutions in DMSO to a final DMSO concentration of 0.1% v/v in H2O (Water For Injection, WFI, Fisherscientific #10378939)) or with the empty carrier DMSO at 0.1% v/v as control for 5 days. At day 5 after starting the treatments the cells were subjected to the alamarBlue® Proliferation Assay (Bio-Rad Serotec GmbH, BUF012B) according to the protocol of the manufacturer. The readout was taken with a multi-well plate-reader in the fluorescence mode with applying a filter for excitation at 560 nm (band width 10 nm) and for emission at 590 nm (band width 10 nm). Control treatments for growth inhibition with commercial compounds such as Methotrexate (MTREX) and Resveratrol (RES) were included on every plate. Some of the test compounds of the present invention were obtained and applied as their salts. According cases are indicated in the column “Specification” in Table 55 to Table 92 and by their sum formula in Table 93.
(§4) The assays were performed in duplicate or more replicates of independent single experiments each containing a six-fold replicate for every condition. For every individual plate, the measured fluorescence intensity values of the conditions with compound treatment were normalized against the corresponding equally weighted arithmetic mean of the fluorescence intensity values of the six DMSO treated control wells in order to obtain the relative values to a baseline level of 1.0.
(§5) Two independent outlier analyses were performed according to the methods by Peirce and Chauvenet (Ross, Journal of Engineering Technology 2003, 1-12). Outliers confirmed by at least one of the methods were excluded from the calculations but not more than one value out of six per compound within a single experiment. The weighted arithmetic mean (here abbreviated as AVEw) for each compound was calculated from the normalized values over all independent replicates of the single experiments comprising the six replicates each. The corresponding standard deviation for the weighted arithmetic mean was calculated according to the method described by Bronstein et al. (Bronstein, Semendjajew, Musiol, Müihlig, Taschenbuch der Mathematik, 5th edition 2001 (German), publisher: Verlag Harri Deutsch, Frankfurt am Main and Thun) and was combined with the Gauß' error propagation associated with the performed calculation for the normalization. The resulting standard deviation is herein referred to as “combined standard deviation”. […]

[3] = test system: NB-4 cells (human acute promyelocytic leukemia cells); test: Proliferation assay (alamarBlue) with NB-4 cells
From the text: as §3, §4, §5

[4] = test system: A-431 cells (human epidermoid squamous cell carcinoma cells); test: Proliferation assay (alamarBlue) with A-431 cells; settings: for Activity Range (weighted arithmetic mean AVEw of normalized fluorescence intensity, relative to DMSO basis level 1.0): 20 μM; for Activity Range (weighted arithmetic mean of normalized fluorescence intensity, relative to DMSO basis level 1.0): control at 40 μM
From the text: as §3, §4, §5

[5] = test system: 23132/87 cells (human gastric adenocarcinoma cells); test: Proliferation assay (alamarBlue) with 23132/87 cells; settings: for Activity Range (weighted arithmetic mean AVEw of normalized fluorescence intensity, relative to DMSO basis level 1.0): 20 μM; for Activity Range (weighted arithmetic mean of normalized fluorescence intensity, relative to DMSO basis level 1.0): control at 40 μM
From the text: as §3, §4, §5

[6] = test system: C2C12 cells (murine myoblast cells); test: Proliferation assay (alamarBlue) with C2C12 cells
From the text: as §1, §2

[7] = compound at 20 μM, Table 65 (novel compounds)
[8] = compound at 20 μM, Table 66 (compounds of PCT/EP2018/054686)
[9] = 20 μM, relative to DMSO basis level 1.0, Table 57 (novel compounds)
[10] = 20 μM, relative to DMSO basis level 1.0, Table 58 (compounds disclosed in PCT/EP2018/054686)
[11] = Table 85 (compounds disclosed in PCT/EP2018/054686)
[12] = Table 76 (compounds disclosed in PCT/EP2018/054686)
[13] = compounds and controls at 20 μM

CN(Cc1cnc2nc(N)nc(N)c2n1)c1ccc(C(=O)N[C@@H](CCC(=O)O)C(=O)O)cc1 [MTREX, Methotrexate] was tested. Which “Activity Range: weighted arithmetic mean (AVEw) of normalized fluorescence intensity, relative to DMSO basis level of 1.0” value ([1]; control at 20 μM) did it give?
Its value is 0.9 ± 0.0.

What about the “Activity Range: weighted arithmetic mean (AVEw) of normalized fluorescence intensity relative to DMSO basis level 1.0” value [2, 7] of the same compound?
The value was 1.0 ± 0.0.

And the “Activity Range: weighted arithmetic mean (AVEw) of normalized fluorescence intensity relative to DMSO basis level 1.0” value [2, 8]?
Its value is 1 ± 0.0.

And the “Activity Range: weighted arithmetic mean (AVEw) of normalized fluorescence intensity, proliferation assay with NB-4 cells” value [3, 9]?
The value was 0.1 ± 0.0.

And the “Activity Range: weighted arithmetic mean (AVEw) of normalized fluorescence intensity, proliferation assay with NB-4 cells” value [3, 10]?
The value was 0.1 ± 0.0.

What about the “Activity Range (weighted arithmetic mean AVEw of normalized fluorescence intensity, relative to DMSO basis level 1.0)” value ([4]; Table 84 (novel compounds)) of the same compound?
The value was 0.2 ± 0.1.

And the “Activity Range (weighted arithmetic mean AVEw of normalized fluorescence intensity, relative to DMSO basis level 1.0)” value [4, 11]?
The value was 0.2 ± 0.1.

And the “Activity Range (weighted arithmetic mean AVEw of normalized fluorescence intensity, relative to DMSO basis level 1.0)” value ([5]; Table 75 (novel compounds))?
The value was 0.3 ± 0.0.

What about the “Activity Range (weighted arithmetic mean AVEw of normalized fluorescence intensity, relative to DMSO basis level 1.0)” value [5, 12] of the same compound?
The value was 0.3 ± 0.0.

What about the “Activity Range: weighted arithmetic mean (AVEw) of normalized fluorescence intensity, relative to DMSO basis level of 1.0” value [6, 13] of the same compound?
Its value is 0.1 ± 0.0.

Oc1ccc(C=Cc2cc(O)cc(O)c2)cc1 [RES, Resveratrol] was tested. Which “Activity Range: weighted arithmetic mean (AVEw) of normalized fluorescence intensity, relative to DMSO basis level of 1.0” value ([1]; control at 20 μM) did it give?
The value was 0.2 ± 0.0.

What about the “Activity Range: weighted arithmetic mean (AVEw) of normalized fluorescence intensity, relative to DMSO basis level of 1.0” value ([1]; control at 40 μM) of the same compound?
Its value is 0.2 ± 0.0.

What about the “Activity Range: weighted arithmetic mean (AVEw) of normalized fluorescence intensity relative to DMSO basis level 1.0” value [2, 7] of the same compound?
Its value is 0.9 ± 0.0.

What about the “Activity Range: weighted arithmetic mean (AVEw) of normalized fluorescence intensity relative to DMSO basis level 1.0” value [2, 8] of the same compound?
Its value is 0.9 ± 0.0.

What about the “Activity Range: weighted arithmetic mean (AVEw) of normalized fluorescence intensity relative to DMSO basis level 1.0” value ([2]; control at 40 μM, Table 65) of the same compound?
Its value is 0.7 ± 0.0.

What about the “Activity Range: weighted arithmetic mean (AVEw) of normalized fluorescence intensity relative to DMSO basis level 1.0” value ([2]; control at 40 μM, Table 66) of the same compound?
The value was 0.7 ± 0.0.

And the “Activity Range: weighted arithmetic mean (AVEw) of normalized fluorescence intensity, proliferation assay with NB-4 cells” value [3, 9]?
Its value is 0.1 ± 0.0.

And the “Activity Range: weighted arithmetic mean (AVEw) of normalized fluorescence intensity, proliferation assay with NB-4 cells” value [3, 10]?
Its value is 0.1 ± 0.0.

What about the “Activity Range: weighted arithmetic mean (AVEw) of normalized fluorescence intensity, proliferation assay with NB-4 cells” value ([3]; control at 40 μM, relative to DMSO basis level 1.0, Table 57) of the same compound?
Its value is 0.0 ± 0.0.

What about the “Activity Range: weighted arithmetic mean (AVEw) of normalized fluorescence intensity, proliferation assay with NB-4 cells” value ([3]; control at 40 μM, relative to DMSO basis level 1.0, Table 58) of the same compound?
Its value is 0.0 ± 0.0.

What about the “Activity Range (weighted arithmetic mean AVEw of normalized fluorescence intensity, relative to DMSO basis level 1.0)” value ([4]; Table 84 (novel compounds)) of the same compound?
The value was 0.6 ± 0.0.

And the “Activity Range (weighted arithmetic mean AVEw of normalized fluorescence intensity, relative to DMSO basis level 1.0)” value [4, 11]?
The value was 0.6 ± 0.0.

And the “Activity Range (weighted arithmetic mean of normalized fluorescence intensity, relative to DMSO basis level 1.0)” value ([4]; Table 84)?
The value was 0.2 ± 0.0.

And the “Activity Range (weighted arithmetic mean of normalized fluorescence intensity, relative to DMSO basis level 1.0)” value ([4]; Table 85)?
Its value is 0.2 ± 0.0.

And the “Activity Range (weighted arithmetic mean AVEw of normalized fluorescence intensity, relative to DMSO basis level 1.0)” value ([5]; Table 75 (novel compounds))?
The value was 0.5 ± 0.1.

And the “Activity Range (weighted arithmetic mean AVEw of normalized fluorescence intensity, relative to DMSO basis level 1.0)” value [5, 12]?
Its value is 0.5 ± 0.1.

And the “Activity Range (weighted arithmetic mean of normalized fluorescence intensity, relative to DMSO basis level 1.0)” value ([5]; Table 75)?
Its value is 0.2 ± 0.0.

And the “Activity Range (weighted arithmetic mean of normalized fluorescence intensity, relative to DMSO basis level 1.0)” value ([5]; Table 76)?
The value was 0.2 ± 0.0.

What about the “Activity Range: weighted arithmetic mean (AVEw) of normalized fluorescence intensity, relative to DMSO basis level of 1.0” value [6, 13] of the same compound?
The value was 0.8 ± 0.0.

And the “Activity Range: weighted arithmetic mean (AVEw) of normalized fluorescence intensity, relative to DMSO basis level of 1.0” value ([6]; control at 40 μM)?
The value was 0.2 ± 0.1.
